# pIC50: −log10 of the molar value.
# Biological target: MAPK14 (human) (UniProt Q16539)
# Test: Inhibition of MAPK14 Kinase Activity
# MAPK14 (human), sequence (Q16539 whole entry, looked up): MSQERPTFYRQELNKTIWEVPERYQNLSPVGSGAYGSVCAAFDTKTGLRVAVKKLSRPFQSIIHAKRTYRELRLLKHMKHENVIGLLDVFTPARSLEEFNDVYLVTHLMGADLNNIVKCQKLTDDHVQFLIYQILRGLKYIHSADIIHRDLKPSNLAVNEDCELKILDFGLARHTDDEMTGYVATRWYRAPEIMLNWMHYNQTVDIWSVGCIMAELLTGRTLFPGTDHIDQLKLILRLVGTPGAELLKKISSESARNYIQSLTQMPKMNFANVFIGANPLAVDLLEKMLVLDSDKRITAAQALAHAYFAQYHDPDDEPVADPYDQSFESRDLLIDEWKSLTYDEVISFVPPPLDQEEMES
row,Compound,pIC50
1,Oc1ccc(-c2cnc3ccc4ccncc4c3c2)cc1,< 4.70
2,CS(=O)(=O)Nc1ccc(-c2cnc3cccc(Nc4ncccn4)c3c2)cc1,< 4.70
3,CC(=O)Nc1ccc(-c2cnc3ccc4ccncc4c3c2)cc1,< 4.70
4,CS(=O)(=O)Nc1ccc(-c2cnc3ccc4ccncc4c3c2)cc1,< 4.70
5,CS(=O)(=O)N(c1ccc(-c2cnc3ccc4ccncc4c3c2)cc1)S(C)(=O)=O,< 4.70
6,CC(C)(C)NS(=O)(=O)c1ccc(-c2cnc3cccc(Nc4ccccn4)c3c2)cc1,< 4.70
7,CS(=O)(=O)Nc1ccc(-c2cnc3cccc(Nc4ccc(Cl)cn4)c3c2)cc1,< 4.70
8,CS(=O)(=O)Nc1ccc(-c2cnc3cccc(Nc4ccccn4)c3c2)cc1,< 4.70

# Continued, values first:
row,pIC50,Compound
1,< 4.70,c1ccc(-c2cnc3ccc4ccncc4c3c2)cc1
2,< 4.70,CS(=O)(=O)Nc1ccc(-c2cnc3cccc(-c4cccnc4)c3c2)cc1
3,< 4.70,Nc1ccc(-c2cnc3ccc4ccncc4c3c2)cc1
4,< 4.70,CS(=O)(=O)Nc1ccc(-c2cnc3cccc(-c4ccncc4)c3c2)cc1
5,< 4.70,CC(C)(C)NS(=O)(=O)c1ccc(-c2cnc3cccc(Nc4ccc(Cl)cn4)c3c2)cc1
